Experimental data taken from patent publication US10870639B2, “Pyrimidine compounds and pharmaceutical compositions for preventing or treating cancers including the same” (HANMI PHARM. CO., LTD., priority 2018, dated 2020).

Columns and labels:
VEGFR2 (KDR) = VEGFR2 (KDR) (Homo sapiens (Human), UniProt P35968); assay: z-LYTE kinase assay, VEGFR2; format: biochemical; conditions: compound concentration 100 nM
SYK = SYK (Homo sapiens (Human), UniProt P43405); assay: z-LYTE kinase assay, SYK; format: biochemical; conditions: compound concentration 100 nM
Experimental: The SYK inhibitory activity of the compounds was evaluated based on z-LYTE technology developed by Thermo Fisher Scientific Inc. According to this evaluation method, signals of the fluorescence of FRET-peptides are measured, wherein fluorescence of a FRET-peptide which is phosphorylated by the […] and fluorescence of a non-phosphorylated peptide are measured to identify an activity with respect to kinase. […] The background signal was measured in the absence of proteins; a non-inhibitory signal was measured only when the solvent (1% DMSO) was added; and an evaluation compound was used at a concentration of 100 nM to calculate the SYK inhibitory activity of the evaluation compound as a percentage (%).

MOLM-13 = assay: Cell growth inhibition (MTS), MOLM-13; format: cell-based; conditions: Homo sapiens, MOLM-13, 72 h, incubation three days
Experimental: (§1) The human acute myelogenous leukemia […] cell line MOLM-13 (DSMZ no. ACC 554) was incubated in RPM11640 medium supplemented with 20% heat-inactivated FBS at a temperature of 37° C. The incubated cell line was prepared in an amount of 2.0×10^4 cells/100 μL, and then plated on a 96-well plate. The RPMI1640 medium was serially diluted with the test compounds at a concentration in a range of 1 μM to 0.01 nM at a ratio of 1:10. Subsequently, incubation was performed thereon for three days. For the human acute myelogenous leukemia cell line MV-4-11 cell line (ATCC® CRL-9591™), the cells were incubated at a temperature of 37° C. in IMDM medium supplemented with 10% FBS. The incubated cell line was prepared in an amount of 2×10^4 cells/100 μL, and then plated on a 96-well plate. The IMDM medium was treated with cascade dilution of three test compounds at a concentration in a range of 1 μM to 0.01 nM at a rate of 1/10. Subsequently, incubation was performed thereon for three days. MTS test was performed to measure cell viability, and the growth inhibition (GI50) value of the cell line was calculated using GraphPad Prism software.

MV-4-11 = assay: Cell growth inhibition (MTS), MV-4-11; format: cell-based; conditions: Homo sapiens, MV4-11, 72 h, incubation three days
Experimental: as §1

FLT3 ITD = FLT3 ITD (Homo sapiens, UniProt P36888, ITD); assay: LanthaScreen kinase binding assay, FLT3 ITD
Sequence of FLT3 ITD (P36888 whole entry, looked up, change not shown): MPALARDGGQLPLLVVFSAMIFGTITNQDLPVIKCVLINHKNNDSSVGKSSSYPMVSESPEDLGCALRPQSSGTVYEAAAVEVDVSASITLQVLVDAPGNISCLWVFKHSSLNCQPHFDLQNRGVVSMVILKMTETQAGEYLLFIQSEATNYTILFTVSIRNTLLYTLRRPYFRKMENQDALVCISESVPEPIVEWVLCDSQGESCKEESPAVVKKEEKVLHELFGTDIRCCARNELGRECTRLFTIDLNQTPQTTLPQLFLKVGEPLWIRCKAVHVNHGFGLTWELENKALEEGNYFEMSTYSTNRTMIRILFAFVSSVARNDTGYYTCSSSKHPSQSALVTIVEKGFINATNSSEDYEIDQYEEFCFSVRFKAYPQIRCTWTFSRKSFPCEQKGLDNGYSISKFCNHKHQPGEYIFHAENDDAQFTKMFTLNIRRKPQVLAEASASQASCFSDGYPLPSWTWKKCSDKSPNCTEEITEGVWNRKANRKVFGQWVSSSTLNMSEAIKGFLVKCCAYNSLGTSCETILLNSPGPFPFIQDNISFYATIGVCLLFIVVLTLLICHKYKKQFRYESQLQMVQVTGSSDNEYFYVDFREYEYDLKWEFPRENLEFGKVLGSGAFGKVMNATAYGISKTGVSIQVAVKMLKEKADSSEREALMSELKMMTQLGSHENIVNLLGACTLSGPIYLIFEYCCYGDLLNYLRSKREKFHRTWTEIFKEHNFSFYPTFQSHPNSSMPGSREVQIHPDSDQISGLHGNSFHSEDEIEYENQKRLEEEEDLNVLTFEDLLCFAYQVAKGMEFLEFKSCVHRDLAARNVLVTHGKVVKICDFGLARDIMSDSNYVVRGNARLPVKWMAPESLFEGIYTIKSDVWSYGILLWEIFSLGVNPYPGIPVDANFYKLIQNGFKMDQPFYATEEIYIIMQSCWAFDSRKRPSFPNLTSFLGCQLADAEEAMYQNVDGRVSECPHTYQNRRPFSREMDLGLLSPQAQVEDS
Experimental: The inhibitory activity of some of the compounds described above against FLT3-ITD, FLT3 wild type (WT), VEGFR2 (KDR), and SYK kinase was measured.
This experiment was carried out on a 384-well plate in conditions including 50 mM HEPES pH 7.5, 0.01% BRIJ-35, 10 mM MgCl2, 1 mM EGTA, and 1% DMSO.

[1] = Microsomal stability, human liver microsomes; format: in vitro ADME; conditions: residual amount % after 1 hour, 37° C., 5 μM, 1 mg/ml microsomes, NADPH regenerating system
Experimental: To confirm the reactivity of the test substances with intra-hepatic CYP450 enzymes, 5 μM test substances and 1 mg/ml human liver microsomes were incubated for 1 hour at a temperature of 37° C. in the presence of an NADPH regenerating system. After 1 hour, acetonitrile was added to terminate the reaction, and the supernatant obtained by centrifugation was analyzed by HPLC. The remaining amount % was calculated using the following equation using the value of the reacted sample for 1 hour relative to the value of the 0-minute sample as the peak value obtained as an analysis result. (Peak value of the sample reacted for 1 hour/peak value of the sample at 0 minutes)×100=residual amount %

[2] = Microsomal stability, mice microsomes; format: in vitro ADME; conditions: residual amount % after 1 hour, 37° C., 5 μM, NADPH regenerating system

Sequence of VEGFR2 (KDR) (P35968 20-1356): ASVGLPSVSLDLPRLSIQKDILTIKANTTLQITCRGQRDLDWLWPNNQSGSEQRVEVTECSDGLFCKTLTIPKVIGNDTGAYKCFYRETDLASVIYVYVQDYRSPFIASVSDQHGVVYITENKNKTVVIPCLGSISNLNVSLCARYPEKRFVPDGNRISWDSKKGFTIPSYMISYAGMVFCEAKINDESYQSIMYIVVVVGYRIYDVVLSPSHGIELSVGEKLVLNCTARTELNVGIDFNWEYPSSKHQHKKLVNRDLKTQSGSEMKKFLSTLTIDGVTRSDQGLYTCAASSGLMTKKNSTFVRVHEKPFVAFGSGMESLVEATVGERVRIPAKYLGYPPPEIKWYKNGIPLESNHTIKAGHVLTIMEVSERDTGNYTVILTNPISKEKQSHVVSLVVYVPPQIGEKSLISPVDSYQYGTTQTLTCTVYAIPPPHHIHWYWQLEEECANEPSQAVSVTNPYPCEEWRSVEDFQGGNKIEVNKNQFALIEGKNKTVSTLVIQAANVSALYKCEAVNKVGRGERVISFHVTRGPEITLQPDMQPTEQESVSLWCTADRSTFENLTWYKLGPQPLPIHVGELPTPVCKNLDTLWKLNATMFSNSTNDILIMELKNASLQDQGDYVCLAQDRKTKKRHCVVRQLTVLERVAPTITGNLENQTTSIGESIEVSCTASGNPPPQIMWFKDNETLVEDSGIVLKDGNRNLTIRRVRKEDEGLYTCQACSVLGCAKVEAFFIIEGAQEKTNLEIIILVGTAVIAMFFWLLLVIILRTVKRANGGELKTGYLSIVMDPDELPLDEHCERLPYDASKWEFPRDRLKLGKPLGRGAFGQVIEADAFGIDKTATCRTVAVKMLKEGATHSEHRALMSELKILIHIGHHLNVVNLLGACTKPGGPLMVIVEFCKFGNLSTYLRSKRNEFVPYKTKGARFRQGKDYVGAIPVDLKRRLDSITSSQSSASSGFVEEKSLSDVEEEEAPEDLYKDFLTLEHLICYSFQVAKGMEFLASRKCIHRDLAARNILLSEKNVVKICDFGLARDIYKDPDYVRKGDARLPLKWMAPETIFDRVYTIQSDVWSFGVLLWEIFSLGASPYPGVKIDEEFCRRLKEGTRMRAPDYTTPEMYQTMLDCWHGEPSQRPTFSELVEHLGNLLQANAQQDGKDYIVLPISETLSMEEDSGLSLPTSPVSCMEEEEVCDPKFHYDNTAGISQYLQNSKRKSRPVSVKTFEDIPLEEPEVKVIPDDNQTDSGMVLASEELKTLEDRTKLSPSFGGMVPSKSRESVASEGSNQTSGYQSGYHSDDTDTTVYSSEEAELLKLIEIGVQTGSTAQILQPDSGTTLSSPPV

Structure (SMILES) | inhibition at 0.1 µM (VEGFR2 (KDR)) | inhibition at 0.1 µM (SYK) | GI50 (MOLM-13) | GI50 (MV-4-11) | IC50 (FLT3 ITD) | Human microsomal stability (%) [1] | Mice microsomal stability (%) [2]
Cc1ccc2c(-c3nc(Nc4cc(CN5C[C@@H](C)N(CCO)[C@@H](C)C5)cc(C5CC5)c4)ncc3Cl)c[nH]c2c1 [Example 5, 2-((2R,6S)-4-(3-((5-chloro-4-(6-methyl-1H-indole-3-yl)pyrimidine-2-yl)amino)-5-cyclopropylbenzyl)-2,6-dimethylpiperazine-1-yl)ethane-1-ol] | 71% | 78% | 0.8 nM | 0.5 nM | 7.2 nM | – | –
Cc1ccc2c(-c3nc(Nc4cc(CN5C[C@@H](C)NC6(CC6)C5)cc(C5CC5)c4)ncc3Cl)c[nH]c2c1 [Example 27, (R)-5-chloro-N-(3-cyclopropyl-5-((5-methyl-4,7-diazaspiro[2.5]octan-7-yl)methyl)phenyl)-4-(6-methyl-1H-indole-3-yl)pyrimidine-2-amine] | – | – | – | – | – | 72% | 69%
C[C@@H]1CN(Cc2cc(Nc3ncc(Cl)c(-c4c[nH]c5cc(F)ccc45)n3)cc(C3CC3)c2)C[C@H](C)N1 [Example 1, 5-chloro-N-(3-cyclopropyl-5-(((3R,5S)-3,5-dimethylpiperazine-1-yl)methyl)phenyl)-4-(6-fluoro-1H-indole-3-yl)pyrimidine-2-amine] | 95% | 73% | 4 nM | 1.2 nM | – | – | –
CCN(CC)C1CCN(c2cc(Nc3ncc(Cl)c(-c4c[nH]c5cc(C)ccc45)n3)cc(C3CC3)c2)CC1 [Control Compound 6, reference compound] | – | – | – | – | – | 49% | 29%
Cc1ccc2c(-c3nc(Nc4cc(CN5C[C@@H](C)N[C@@H](C)C5)cc(C5CC5)c4)ncc3Cl)c[nH]c2c1 [Example 8, 5-chloro-N-(3-cyclopropyl-5-(((3R,5S)-3,5-dimethylpiperazine-1-yl)methyl)phenyl)-4-(6-methyl-1H-indole-3-yl)pyrimidine-2-amine] | 100% | 95% | 5.2 nM | 1.3 nM | – | – | –
